Paper PMC7150891, “Mertansine Inhibits mRNA Expression and Enzyme Activities of Cytochrome P450s and Uridine 5′-Diphospho-Glucuronosyltransferases in Human Hepatocytes and Liver Microsomes” (Pharmaceutics, 2020)
Entries after “also recorded” stand apart in the source; their conditions may differ.

Columns and labels:
UGT1A3 = target: T1, UGT1A3 (Homo sapiens, UniProt P35503); test: Inhibition of UGT1A3-catalyzed chenodeoxycholic acid 24-acyl-β-glucuronidation in ultrapooled human liver microsomes; type: in vitro ADME
T1 construct: ultrapooled human liver microsomes (0.2 mg/mL); from tissue; host or cells: human liver microsomes (ultrapooled)
T1 sequence (P35503 29-534): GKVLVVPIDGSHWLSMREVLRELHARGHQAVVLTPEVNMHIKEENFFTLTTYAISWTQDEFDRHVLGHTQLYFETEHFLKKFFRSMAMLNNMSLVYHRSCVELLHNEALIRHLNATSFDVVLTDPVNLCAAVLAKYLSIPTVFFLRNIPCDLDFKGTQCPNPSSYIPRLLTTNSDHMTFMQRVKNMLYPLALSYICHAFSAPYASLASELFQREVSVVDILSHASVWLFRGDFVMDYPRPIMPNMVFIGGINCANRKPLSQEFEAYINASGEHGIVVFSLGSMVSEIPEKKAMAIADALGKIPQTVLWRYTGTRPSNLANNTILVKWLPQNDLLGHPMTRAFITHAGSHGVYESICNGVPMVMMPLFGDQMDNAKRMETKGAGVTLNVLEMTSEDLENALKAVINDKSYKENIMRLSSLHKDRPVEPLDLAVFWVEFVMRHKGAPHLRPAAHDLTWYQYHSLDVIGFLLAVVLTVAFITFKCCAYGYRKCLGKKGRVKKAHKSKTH
Method: The inhibitory potential of mertansine on UGT1A1, UGT1A3, UGT1A4, UGT1A6, UGT1A9, and UGT2B7 activities was evaluated using liquid chromatography–tandem mass spectrometry (LC-MS/MS) with a cocktail of UGT substrates and ultrapooled human liver microsomes. Each incubation mixture was prepared to a final volume of 100 μL as follows: ultrapooled human liver microsomes (0.2 mg/mL), 5 mM UDPGA, 10 mM magnesium chloride, alamethicin (25 μg/mL), 50 mM Tris buffer (pH 7.4), various concentrations of mertansine in methanol (final concentrations of 0.01–50 μM), and the cocktail sets of UGT enzyme-specific substrates. Two cocktail sets were used: set A contained 0.5 μM SN-38 for UGT1A1, 2 μM chenodeoxycholic acid for UGT1A3, and 0.5 μM trifluoperazine for UGT1A4; and set B contained 1 μM N-acetylserotonin for UGT1A6, 0.2 μM mycophenolic acid for UGT1A9, and 1 μM naloxone for UGT2B7. The reactions were initiated by adding UDPGA and incubated in a shaking water bath for 60 min at 37 °C. […] Next, 50 μL of each supernatant of sets A and B was mixed, and aliquots (5 μL) were analyzed using LC-MS/MS. […]
The LC-MS/MS system was comprised of an Agilent 6495 triple quadrupole mass spectrometer coupled with an Agilent 1290 Infinity system (Agilent Technologies, Wilmington, DE, USA). […] The electrospray ionization (ESI) source settings in both positive and negative ion modes were as follows: gas temperature, 200 °C; gas flow, 14 L/min; nebulizer, 40 psi; sheath gas temperature, 380 °C; sheath gas flow, 11 L/min; capillary voltage, 4500 V; and nozzle voltage, 500 V. Each metabolite was quantified via selected reaction monitoring in the negative ion mode (chenodeoxycholic acid 24-acyl-β-glucuronide, m/z 567.1 to 391.2; mycophenolic acid β-D-glucuronide, m/z 495.0 to 319.0; propofol glucuronide (IS), m/z 353.0 to 177.0) and in the positive ion mode (SN-38 glucuronide, m/z 568.9 to 392.9; trifluoperazine N-β-D-glucuronide, m/z 583.9 to 407.9; N-acetylserotonin β-D-glucuronide, m/z 394.0 to 219.0; naloxone 3-β-D-glucuronide, m/z 503.9 to 309.9; meloxicam (IS), m/z 351.9 to 115.0). […]

CYP3A4 = system: CYP3A4
Method: (§1) Samples were incubated for 48 h at 37 °C in 5% CO2, and the medium was exchanged with 250 μL of fresh medium containing drugs or the vehicle every 24 h.
(§2) The effects of mertansine on CYP1A2, CYP2B6, and CYP3A4 activities were evaluated. […] Mixtures were vortexed for 2 min and then centrifuged at 13,000 g for 4 min at 4 °C. The supernatant (40 µL) was diluted with 60 µL of deionized water and then mixed for 2 min by vortexing. An aliquot (5 µL) was analyzed using LC-MS/MS [37], and CYP1A2, CYP2B6, and CYP3A4 enzyme activities were expressed as formation rates (pmol/million cells/min).
(§3) The percentage changes in enzymatic activities were calculated as (CYP activity with test compound treatment/CYP activity with vehicle control treatment) × 100. The IC50 (the concentration of the inhibitor needed for half-maximal inhibition) values were calculated using SigmaPlot ver. […] Ki (the inhibition constant) and the inhibition mode of UGT1A1, UGT1A3, and UGT1A4 activities were determined using Enzyme Kinetics ver. 1.1 (Systat Software, Inc.).

CYP1A2 = test: CYP1A2-catalyzed phenacetin O-deethylase activity in human hepatocytes after 48 h treatment
Method: as §1, §2, §3

[1] = mertansine 48 h, three human hepatocytes

## COc1cc2cc(c1Cl)N(C)C(=O)CC(OC(=O)C(C)N(C)C(=O)CCS)C1(C)OC1C(C)C1CC(O)(NC(=O)O1)C(OC)C=CC=C(C)C2 (stereo not shown) [mertansine, Mertansine]
UGT1A3; human liver microsomes, Dixon plot
  Inhibition Mode, UGT1A3: competitively inhibited; also recorded: competitive inhibitor
UGT1A3; human liver microsomes, chenodeoxycholic acid 0.5–5 µM
  Ki: 4.3 µM
UGT1A3; ultrapooled human liver microsomes, 2 µM chenodeoxycholic acid (cocktail)
  IC50: 6.4 µM
CYP3A4; human, hepatocytes
  Mean decrease of CYP3A4-mediated midazolam 1′-hydroxylase activity: 39.7%
CYP3A4; [1]
  Decrease of CYP3A4-mediated midazolam 1′-hydroxylase activity compared to vehicle: 30.8–62.7%
CYP1A2; highest concentration (2500 nM), 48 h, mean of three human hepatocytes
  Mean decrease of CYP1A2-mediated phenacetin O-deethylase activity: 48.3%
CYP1A2; [1]
  Decrease of CYP1A2-mediated phenacetin O-deethylase activity compared to vehicle: 27.8–79.0%
